According to patent US9975885B2, “Broad-spectrum non-covalent coronavirus protease inhibitors” (priority 2016, dated 2018):

Experiments:
HKU5-3CL^pro = HKU5-3CL^pro (Bat coronavirus HKU5 (BtCoV) (BtCoV/HKU5/2004), UniProt P0C6W4); type: biochemical
FIPV-3CL^pro = FIPV-3CL^pro (Feline coronavirus (strain FIPV WSU-79/1146) (FCoV), UniProt Q98VG9); experiment: biochemical
SARS-3CL^pro = SARS-3CL^pro (Severe acute respiratory syndrome coronavirus (SARS-CoV), UniProt P0C6X7); type: biochemical
[1] = system: Ten CoV 3CL^pro's (FIPV-, PEDV-, NL63-, HKU1-, OC43-, SARS-, HKU4-, HKU5-, HKU9-, IBV-3CL^pro); type: biochemical, coronaviruses (α-, β-, γ-CoV)
HKU1-3CL^pro = HKU1-3CL^pro (Human coronavirus HKU1 (isolate N1) (HCoV-HKU1), UniProt P0C6X2); experiment: biochemical
PEDV-3CL^pro = PEDV-3CL^pro (Porcine epidemic diarrhea virus (strain CV777) (PEDV), UniProt P0C6Y4); experiment: biochemical; conditions: for inhibition at 100 µM: read-out: inhibition of PEDV-3CL^pro
IBV-3CL^pro = IBV-3CL^pro (Avian infectious bronchitis virus (strain Beaudette) (IBV), UniProt P0C6Y1); type: biochemical
OC43-3CL^pro = OC43-3CL^pro (Human coronavirus OC43 (HCoV-OC43), UniProt P0C6X6); type: biochemical
HKU4-3CL^pro = HKU4-3CL^pro (Bat coronavirus HKU4 (BtCoV) (BtCoV/HKU4/2004), UniProt P0C6W3); type: biochemical
NL63-3CL^pro = NL63-3CL^pro (Human coronavirus NL63 (HCoV-NL63), UniProt P0C6X5); experiment: biochemical
HKU9-3CL^pro = HKU9-3CL^pro (Bat coronavirus HKU9 (BtCoV) (BtCoV/HKU9), UniProt P0C6W5); type: biochemical
Chain of HKU9-3CL^pro (P0C6W5 3104-3409 limits assumed): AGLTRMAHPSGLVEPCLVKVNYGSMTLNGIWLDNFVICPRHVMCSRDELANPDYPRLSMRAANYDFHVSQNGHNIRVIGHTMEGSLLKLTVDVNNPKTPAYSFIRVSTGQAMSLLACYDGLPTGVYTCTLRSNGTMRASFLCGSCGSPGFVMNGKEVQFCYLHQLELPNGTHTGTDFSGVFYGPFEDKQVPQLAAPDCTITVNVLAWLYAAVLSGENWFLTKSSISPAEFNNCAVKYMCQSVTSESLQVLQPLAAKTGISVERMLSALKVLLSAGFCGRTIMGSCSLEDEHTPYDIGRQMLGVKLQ

Chain of HKU4-3CL^pro (P0C6W3 3292-3597 limits assumed): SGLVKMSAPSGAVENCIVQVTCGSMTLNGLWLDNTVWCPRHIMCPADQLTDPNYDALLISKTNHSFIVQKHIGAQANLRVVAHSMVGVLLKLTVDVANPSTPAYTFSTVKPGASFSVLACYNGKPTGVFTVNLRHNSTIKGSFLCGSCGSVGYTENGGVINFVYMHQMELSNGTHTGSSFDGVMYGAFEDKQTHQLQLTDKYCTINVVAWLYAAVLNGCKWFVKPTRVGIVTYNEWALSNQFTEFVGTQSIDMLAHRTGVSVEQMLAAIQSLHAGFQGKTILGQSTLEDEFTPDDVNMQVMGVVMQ
Chain of HKU5-3CL^pro (P0C6W4 3339-3644 limits assumed): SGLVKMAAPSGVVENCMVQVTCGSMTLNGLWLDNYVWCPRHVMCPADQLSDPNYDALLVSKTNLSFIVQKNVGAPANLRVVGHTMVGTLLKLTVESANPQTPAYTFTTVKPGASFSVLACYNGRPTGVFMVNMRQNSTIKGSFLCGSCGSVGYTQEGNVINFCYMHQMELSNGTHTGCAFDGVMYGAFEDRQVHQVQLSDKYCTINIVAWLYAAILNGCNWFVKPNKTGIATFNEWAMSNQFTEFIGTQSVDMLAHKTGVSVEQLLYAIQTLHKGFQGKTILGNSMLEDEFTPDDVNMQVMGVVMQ
Chain of NL63-3CL^pro (P0C6X5 2940-3242 limits assumed): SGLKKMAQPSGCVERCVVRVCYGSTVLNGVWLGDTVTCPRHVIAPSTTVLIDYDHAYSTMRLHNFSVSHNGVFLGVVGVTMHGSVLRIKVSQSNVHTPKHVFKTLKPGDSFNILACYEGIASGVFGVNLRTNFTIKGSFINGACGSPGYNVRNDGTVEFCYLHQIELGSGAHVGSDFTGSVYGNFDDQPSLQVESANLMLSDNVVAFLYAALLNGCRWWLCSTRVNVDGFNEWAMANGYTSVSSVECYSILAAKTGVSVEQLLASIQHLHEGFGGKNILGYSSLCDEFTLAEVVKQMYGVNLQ
Chain of HKU1-3CL^pro (P0C6X2 3335-3637 limits assumed): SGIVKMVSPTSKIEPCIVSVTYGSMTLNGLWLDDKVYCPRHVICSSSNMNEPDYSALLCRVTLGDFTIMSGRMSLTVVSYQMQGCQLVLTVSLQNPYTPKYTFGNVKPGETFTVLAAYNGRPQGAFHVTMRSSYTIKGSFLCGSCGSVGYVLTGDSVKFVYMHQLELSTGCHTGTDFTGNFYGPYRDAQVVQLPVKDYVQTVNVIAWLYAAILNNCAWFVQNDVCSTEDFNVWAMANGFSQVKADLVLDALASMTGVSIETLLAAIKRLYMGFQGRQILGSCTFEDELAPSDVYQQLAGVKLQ
Chain of OC43-3CL^pro (P0C6X6 3247-3549 limits assumed): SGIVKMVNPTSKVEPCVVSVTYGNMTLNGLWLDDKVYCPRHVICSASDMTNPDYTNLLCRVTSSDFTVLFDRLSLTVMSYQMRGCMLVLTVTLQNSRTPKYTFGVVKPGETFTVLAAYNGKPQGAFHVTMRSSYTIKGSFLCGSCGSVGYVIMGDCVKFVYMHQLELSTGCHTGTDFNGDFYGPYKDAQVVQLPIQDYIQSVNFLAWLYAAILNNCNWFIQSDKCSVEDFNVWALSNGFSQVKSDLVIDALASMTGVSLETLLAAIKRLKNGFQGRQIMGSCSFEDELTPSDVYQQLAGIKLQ
Chain of IBV-3CL^pro (P0C6Y1 2780-3086 limits assumed): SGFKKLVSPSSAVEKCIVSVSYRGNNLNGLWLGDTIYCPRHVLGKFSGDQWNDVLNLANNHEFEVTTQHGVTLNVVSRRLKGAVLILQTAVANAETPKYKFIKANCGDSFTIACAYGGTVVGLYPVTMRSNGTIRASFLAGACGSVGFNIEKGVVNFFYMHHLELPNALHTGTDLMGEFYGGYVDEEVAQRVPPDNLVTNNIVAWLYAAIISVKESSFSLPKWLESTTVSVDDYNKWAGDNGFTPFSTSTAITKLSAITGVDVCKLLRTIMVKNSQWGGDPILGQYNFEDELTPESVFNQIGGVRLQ
Chain of FIPV-3CL^pro (Q98VG9 2904-3205 limits assumed): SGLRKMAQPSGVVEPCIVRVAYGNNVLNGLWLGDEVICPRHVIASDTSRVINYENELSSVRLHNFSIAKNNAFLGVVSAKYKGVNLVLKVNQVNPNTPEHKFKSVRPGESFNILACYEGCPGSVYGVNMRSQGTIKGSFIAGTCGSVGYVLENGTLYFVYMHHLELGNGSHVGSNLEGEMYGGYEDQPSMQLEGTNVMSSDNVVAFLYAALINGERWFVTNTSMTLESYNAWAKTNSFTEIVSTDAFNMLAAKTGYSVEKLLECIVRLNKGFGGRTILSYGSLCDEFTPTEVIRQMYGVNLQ
Chain of PEDV-3CL^pro (P0C6Y4 2998-3299 limits assumed): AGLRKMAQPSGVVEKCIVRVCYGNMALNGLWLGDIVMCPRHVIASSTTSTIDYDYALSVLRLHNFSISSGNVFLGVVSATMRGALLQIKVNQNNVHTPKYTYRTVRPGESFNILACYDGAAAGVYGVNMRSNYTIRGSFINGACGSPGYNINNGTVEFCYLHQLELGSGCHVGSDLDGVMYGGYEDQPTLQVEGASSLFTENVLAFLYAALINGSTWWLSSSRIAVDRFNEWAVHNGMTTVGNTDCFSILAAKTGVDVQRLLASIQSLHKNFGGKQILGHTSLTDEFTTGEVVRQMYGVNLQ

| Compound | IC50 (HKU5-3CL^pro) | IC50 (FIPV-3CL^pro) | IC50 (SARS-3CL^pro) | Gini Coefficient [1] | Score (performance metric score) [1] | inhibition at 100 µM (HKU1-3CL^pro; read-out: inhibition of HKU1-3CL^pro) | inhibition at 100 µM (PEDV-3CL^pro) | inhibition of γ-CoV IBV-3CL^pro (IBV-3CL^pro) | IC50 (OC43-3CL^pro) | inhibition at 100 µM (FIPV-3CL^pro; read-out: inhibition of FIPV-3CL^pro) | IC50 (HKU4-3CL^pro) | inhibition at 100 µM (NL63-3CL^pro; read-out: inhibition of NL63-3CL^pro) | IC50 (HKU9-3CL^pro) | IC50 (HKU1-3CL^pro) | IC50 (PEDV-3CL^pro) | inhibition of NL63-3CL^pro (NL63-3CL^pro) | IC50 (NL63-3CL^pro) |
| --- | --- | --- | --- | --- | --- | --- | --- | --- | --- | --- | --- | --- | --- | --- | --- | --- | --- |
| CC(C)C(=O)Nc1ccc(N(C(=O)Cn2nnc3ccccc32)C(C(=O)NCc2ccccc2)c2cccc(F)c2)cc1 (stereo not shown) [Compound 1P, reference compound] | 1.2 ± 0.1 µM | 6.7 ± 0.7 µM | 1.6 ± 0.2 µM | 0.31 | 5.7 | ≤ 50% | ≤ 50% | no compound, including the parent compounds 1P, 2P, and 3P, was found to be capable of inhibiting | 6.9 ± 0.9 µM | – | – | – | – | – | – | – | – |
| CC(C)(C)NC(=O)C(c1ccsc1)N(C(=O)Cn1nnc2ccccc21)c1ccc(NC(=O)C2CC2)cc1 (stereo not shown) [Compound 2P, reference compound] | 3.5 ± 0.5 µM | – | – | 0.29 | 8.5 | – | ≤ 50% | no compound, including the parent compounds 1P, 2P, and 3P, was found to be capable of inhibiting | 24.4 ± 3.5 µM | ≤ 50% | 3.8 ± 0.3 µM | ≤ 50% | – | – | – | – | – |
| CC(C)(C)NC(=O)C(c1cccnc1)N(C(=O)c1c[nH]cn1)c1ccc(C(C)(C)C)cc1 (stereo not shown) [Compound 3P, reference compound] | – | – | – | 0.13 | 2.7 | – | – | no compound, including the parent compounds 1P, 2P, and 3P, was found to be capable of inhibiting | – | – | – | – | – | – | – | – | – |
| CC(C)Cc1ccc(N(C(=O)c2c[nH]cn2)C(C(=O)NC(C)(C)C)c2cccnc2)cc1 (stereo not shown) [Compound 38, N-(2-(tert-butylamino)-2-oxo-1-(pyridin-3-yl)ethyl)-N-(4-isobutylphenyl)-1H-imidazole-4-carboxamide] | 10.9 ± 0.9 µM | 61.1 ± 13.9 µM | 7 ± 0.6 µM | 0.21 | 4.5 | – | – | – | 24.4 ± 3.1 µM | – | 7.7 ± 0.7 µM | – | 18 ± 3.3 µM | 15.4 ± 1.5 µM | 15.5 ± 1.8 µM | not tolerated | – |
| CC(C)(C)c1ccc(N(C(=O)c2c[nH]cn2)C(C(=O)NC2CCCC2)c2cccnc2)cc1 (stereo not shown) [Compound 47, N-(4-(tert-butyl)phenyl)-N-(2-(cyclopentylamino)-2-oxo-1-(pyridin-3-yl)ethyl)-1H-imidazole-4-carboxamide] | 2.5 ± 0.2 µM | 6.9 ± 0.5 µM | 1.7 ± 0.2 µM | – | – | – | – | – | 7.7 ± 0.8 µM | – | 1.9 ± 0.1 µM | – | 6.4 ± 0.5 µM | 3.4 ± 0.4 µM | 0.7 ± 0.03 µM | – | 6.3 ± 0.5 µM |
| CC(C)(C)c1ccc(N(C(=O)c2c[nH]cn2)C(C(=O)NCc2ccccc2)c2cccnc2)cc1 (stereo not shown) [Compound 48, N-(2-(benzylamino)-2-oxo-1-(pyridin-3-yl)ethyl)-N-(4-(tert-butyl)phenyl)-1H-imidazole-4-carboxamide] | 24.8 ± 2.9 µM | 19 ± 1.7 µM | 6.6 ± 0.8 µM | 0.17 | 3.5 | – | – | – | 46.5 ± 8 µM | – | 26.1 ± 2.1 µM | – | 40.4 ± 8.7 µM | 8 ± 1.5 µM | 3.4 ± 0.4 µM | – | 26.4 ± 4.2 µM |
